From PubChem BioAssay AID1996
≈ marks a conversion by molar mass, not a printed value.

Conditions: buffer; pH 7.4; 200.0 µM

Going from `Cc1ccc(CNC(=O)CCn2c(=O)oc3ccccc32)cc1` to `O=C(Cn1cc(C(F)(F)F)ccc1=O)NCc1ccc(F)cc1`, the solubility kinetic rises from 5.1 µg/mL (≈ 16.4 µM) to greater than 49.2 µg/mL.

First: N#Cc1cc(-c2ccccc2)nc(N2CCNCC2)n1
Second: COc1ccc2c(c1)CCc1c-2nc2ccccc2c1N1CCOCC1
The solubility kinetic of the first is higher: greater than 39.8 µg/mL for the first, 5.5 µg/mL (≈ 15.9 µM) for the second.

First: Cc1cc(S(=O)(=O)Cc2noc(-c3c(C)noc3C)n2)c(C)cc1Cl
Second: Cc1nn(C)c(C)c1NS(=O)(=O)c1ccc(N2CCCC2=O)cc1
The solubility kinetic of the first is lower: less than 0.3 µg/mL for the first, greater than 52.3 µg/mL for the second.

`OCC(O)C1OC(Nc2ccc(Br)cc2)C(O)C1O` (stereo unspecified) and `CSCCCNC(=S)Nc1ccc(N2CCOCC2)cc1` cannot be ordered by solubility kinetic: greater than 50.1 µg/mL for the first, greater than 48.8 µg/mL for the second.

First: CN(Cc1nc(-c2cccc(Cl)c2)no1)C1CCOCC1
Second: CC(C)Cn1c(SCC(=O)O)nnc1-c1cccc(S(=O)(=O)N2CCOCC2)c1
The solubility kinetic of the first is lower: 36.9 µg/mL (≈ 120 µM) for the first, greater than 66.1 µg/mL for the second.

First: O=Nc1ccc(O)c2ncccc12
Second: Cc1cc(=O)n2cccc(O)c2n1.Cl
The solubility kinetic of the first is higher: greater than 26.1 µg/mL for the first, 21.7 µg/mL for the second.

First: CNC(=O)c1ccc(NC(=O)Nc2ccccc2)cc1
Second: COc1ccc(NC(=O)Cc2cccc3ccccc23)cc1
The solubility kinetic of the first is 2.3-fold higher: 6.6 µg/mL (≈ 24.5 µM) for the first, 2.9 µg/mL (≈ 9.95 µM) for the second.

First: C=CCn1c(NCc2ccccc2O)nc2ccccc21
Second: Nc1nc2ccccc2n1CCOc1ccc(Cl)cc1
The solubility kinetic of the first is 11-fold lower: 2.4 µg/mL (≈ 8.59 µM) for the first, 25.8 µg/mL (≈ 89.7 µM) for the second.

Compared with `COc1cccc(NC(=O)COC(=O)C2C3CC4OC(=O)C2C4C3)c1` (stereo unspecified), `COc1ccc(OCCCC(=O)Nc2nc(C)c(C(C)=O)s2)cc1` is 38-fold lower in solubility kinetic: 49.5 µg/mL (≈ 143 µM) for the first, 1.3 µg/mL (≈ 3.73 µM) for the second.

Compared with `O=C(OCC(=O)c1ccc[nH]1)c1ccc([N+](=O)[O-])cc1`, `CC1CCN(C(=O)COC(=O)/C=C/c2ccc([N+](=O)[O-])cc2)CC1` is 2.3-fold lower in solubility kinetic: 13.3 µg/mL (≈ 48.5 µM) for the first, 5.7 µg/mL (≈ 17.2 µM) for the second.

First: CCOc1cccc(C(=O)NC(=S)Nc2ccc(Cl)cc2C(=O)O)c1
Second: O=C(NC(=S)Nc1cc([N+](=O)[O-])ccc1O)c1cccnc1
The solubility kinetic of the first is 4.1-fold higher: 55.2 µg/mL (≈ 146 µM) for the first, 13.5 µg/mL (≈ 42.4 µM) for the second.

Going from `COCc1cc(C)nc(SCc2ccc([N+](=O)[O-])cc2)c1C#N` to `O=C(O)c1ccc(NCCc2ccc(Cl)cc2)c([N+](=O)[O-])c1`, the solubility kinetic rises from 5.2 µg/mL (≈ 15.8 µM) to 44.6 µg/mL (≈ 139 µM) (8.6-fold).

Going from `CC(=NCCN1CCCCC1)c1c(O)n(-c2ccccc2)c(=O)[nH]c1=O` to `Cc1ccc(S(=O)(=O)N2CCN(c3ccccc3)CC2)cc1`, the solubility kinetic falls from greater than 53.5 µg/mL to less than 0.3 µg/mL.

Compared with `O=c1[nH]c2ccc(NC(=S)NCc3ccccc3)cc2[nH]1`, `Cc1cc(C)cc(NC(=S)Nc2cccc3ccccc23)c1` is 6.9-fold lower in solubility kinetic: 7.6 µg/mL (≈ 25.5 µM) for the first, 1.1 µg/mL (≈ 3.59 µM) for the second.

Going from `Cc1cc(Cl)n2c(nc3cc(F)c(F)cc32)c1C#N` to `CCn1cc([N+](=O)[O-])c(=O)c2cc(F)c(N3CCOCC3)cc21`, the solubility kinetic rises from 4.7 µg/mL (≈ 16.9 µM) to 13.5 µg/mL (≈ 42 µM) (2.9-fold).

Compared with `O=C(Nc1cccnc1)c1ccc([N+](=O)[O-])s1`, `O=C(/C=C/c1ccccc1)Nc1sc2c(c1C(=O)O)CCC2` is higher in solubility kinetic: 9.9 µg/mL (≈ 39.7 µM) for the first, greater than 47 µg/mL for the second.

`Cc1c(C(=O)NC2CCCC2)oc2ccccc12` and `O=C(c1ccc2nc(Cc3ccccc3F)oc2c1)N1CCCC1` are within 1.5-fold of each other in solubility kinetic: 33.9 µg/mL (≈ 139 µM) for the first, 33.5 µg/mL (≈ 103 µM) for the second.

`CCC(=O)Nc1ccc2c(c1)nc1n2CCN(C2CCCCC2)C1` and `COCCNc1ccc(N2C(=O)C3CCCCC3C2=O)cc1[N+](=O)[O-]` (stereo unspecified) cannot be ordered by solubility kinetic: greater than 49 µg/mL for the first, 50.8 µg/mL (≈ 146 µM) for the second.

First: CCc1cc(=O)[nH]c(SCC(=O)NCC2CCCO2)n1 (stereo unspecified)
Second: CCc1nc2sc(C(C)=O)c(N)c2c2c1CCCC2
The solubility kinetic of the first is higher: greater than 44.6 µg/mL for the first, 1.1 µg/mL (≈ 4.01 µM) for the second.

`C=CCN(Cc1cccs1)C(=O)COc1ccc2c(c1)OCO2` and `NC(=O)CC[C@H](NC(=O)c1ccc(F)cc1)C(=O)N1CCN(Cc2ccc3c(c2)OCO3)CC1` cannot be ordered by solubility kinetic: greater than 49.7 µg/mL for the first, greater than 70.6 µg/mL for the second.

Going from `CCOC(CNc1ncnc2sc(-c3ccccc3)cc12)OCC` to `CC1CN(CC(=O)NC(C)c2ccccc2)CC(C)O1` (stereo unspecified), the solubility kinetic rises from 18.6 µg/mL (≈ 54.2 µM) to greater than 41.5 µg/mL.

`CC(C)CC(=O)Nc1ccc(Oc2ccc3c(c2)C(=O)NC3=O)cc1` and `CCCCN(C)Cc1cc(=O)oc2cc3c(cc12)CCCC3` cannot be ordered by solubility kinetic: 0.4 µg/mL (≈ 1.18 µM) for the first, less than 0.6 µg/mL for the second.

`COC(=O)CC(CP(=O)([O-])CN(C)C=O)C(=O)OC` (stereo unspecified) and `CC(C)=CCN1CCN(Cc2cccc3c2OCO3)CC1CCO` (stereo unspecified) are within 1.5-fold of each other in solubility kinetic: 27.9 µg/mL for the first, 36.5 µg/mL (≈ 110 µM) for the second.
